Data as given in US8426447B2, “Spiro-tricyclic ring compounds as beta-secretase modulators and methods of use” (Amgen Inc., priority 2008, dated 2013).

Assays:
BACE1 [1] = target: T1, BACE1 (Homo sapiens, UniProt P56817); assay: In Vitro Enzymatic BACE FRET (Fluorescence Resonance Energy Transfer) Assay; format: biochemical; settings: read-out: BACE1 FRET assay
In short: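 First, compound and enzyme sit in 0.05 M acetate (pH 4.2, 10% DMSO final, 100 uM nonionic genapol). Next, 50 nM quenched FRET peptide starts the reaction for one hour. Last, Tris neutralises the mixture before fluorescence is measured.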

BACE1 [2] = target: T1, BACE1; assay: In Vitro BACE Cell-based Assay (HEK cell assay): Aβ40 in conditioned medium of cells stably expressing Amyloid Precursor Protein, sandwich ELISA; settings: read-out: HEK cell assay
In short: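 HEK cells stably expressing APP were treated 24 h with compound in 10-point dose response starting at 100 or 10 μM (0.1% DMSO). Secreted Aβ40 quantified by sandwich ELISA (pAb40 capture, biotinylated 6E10 detection, europium time-resolved fluorescence), with IC50 derived from percent inhibition versus concentration.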

[3] = in vitro BACE FRET enzyme assay, IC50 class symbols
[4] = HEK cell-based assay, Aβ40 in conditioned medium, IC50 class symbols
[5] = Table II, Aβ40, 24 h incubation

T1 sequence (P56817 46-501, species assumed): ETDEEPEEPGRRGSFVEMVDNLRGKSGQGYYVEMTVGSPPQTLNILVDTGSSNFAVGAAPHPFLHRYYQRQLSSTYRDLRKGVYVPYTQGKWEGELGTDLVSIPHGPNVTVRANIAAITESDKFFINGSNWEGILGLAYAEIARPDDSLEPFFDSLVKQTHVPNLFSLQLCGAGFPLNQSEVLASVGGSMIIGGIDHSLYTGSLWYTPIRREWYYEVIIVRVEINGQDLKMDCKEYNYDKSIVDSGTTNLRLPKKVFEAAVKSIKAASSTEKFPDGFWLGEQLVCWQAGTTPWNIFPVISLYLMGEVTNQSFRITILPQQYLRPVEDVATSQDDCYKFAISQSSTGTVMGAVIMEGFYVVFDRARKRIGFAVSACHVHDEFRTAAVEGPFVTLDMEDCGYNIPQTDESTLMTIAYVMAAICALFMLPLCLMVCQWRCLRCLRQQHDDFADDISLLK

SMILES | IC50 (BACE1 [1]; Table IV, class symbols) [µM] | IC50 (BACE1 [2]; Table IV, class symbols) [µM] | IC50 (BACE1 [1]) [µM] | other results
COc1ccc2c(c1)[C@]1(COC(N)=N1)c1cc(-c3cccc4ncccc34)ccc1O2 [compound 591] | 1 to 5 | 1 to 5 |  | 
CN(C)CCOc1ccc2c(c1)[C@]1(COC(N)=N1)c1cc(-c3cccnc3)ccc1O2 [compound 886] | 0.1 to 1 | < 0.1 |  | 
NC1=N[C@@]2(CO1)c1ccccc1Oc1ccc(-c3cccnc3F)cc12 [compound 641] | 0.1 to 1 | 1 to 5 |  | 
Cc1ccccc1-c1ccc2c(c1)[C@]1(COC(N)=N1)c1cccnc1O2 [compound 609] | > 5 | > 5 |  | 
CC(C)(C)C#Cc1ccc2c(c1)[C@]1(COC(N)=N1)c1cc(Oc3ccccn3)ccc1O2 [Example 112, (4R)-2′-(3,3-dimethyl-1-butyn-1-yl)-7′-(2-pyridinyloxy)spiro[1,3-oxazole-4,9′-xanthen]-2-amine] |  |  |  | IC50 (BACE1 [1]; Table III, IC50's in uM ranges): < 0.1 µM; IC50 (BACE1 [2]; Table III, IC50's in uM ranges): 0.1 to 1 µM
COC(C)(C)C#Cc1ccc2c(c1)C1(COC(N)=N1)c1cc(C#CC(C)(C)OC)ccc1O2 [Example 119, 2′,7′-bis(3-methoxy-3-methylbut-1-ynyl)-5H-spiro[oxazole-4,9′-xanthen]-2-amine] |  |  |  | IC50 (BACE1 [1]; Table III, IC50's in uM ranges): 0.1 to 1 µM; IC50 (BACE1 [2]; Table III, IC50's in uM ranges): 0.1 to 1 µM
NC1=N[C@@]2(CO1)c1cc(-c3cc(C4=CCOCC4)ccc3F)ccc1Oc1cnc(C3=CCOCC3)cc12 [compound 423] |  |  | < 0.1 | IC50 (BACE1 [2]; HEK cells): 0.1 to 1 µM
CC1(COc2ccc3c(c2)[C@]2(COC(N)=N2)c2cc(-c4cncnc4)cc(F)c2O3)COC1 [compound 796] | < 0.1 | 0.1 to 1 |  | 
CSc1ccc(-c2ccc3c(c2)[C@]2(COC(N)=N2)c2cc(OCC(C)(C)C)ccc2O3)cc1 [compound 787] |  |  | < 0.1 | IC50 (BACE1 [2]): 1 to 5 µM
Cc1noc(C)c1-c1ccc2c(c1)[C@]1(COC(N)=N1)c1cc(-c3cccnc3)ccc1O2 [compound 704] |  |  | 0.1 to 1 | IC50 (BACE1 [2]): 0.1 to 1 µM
NC1=NC2(CO1)c1cc(-c3cccnc3)ccc1Oc1c2cc(-c2cccnc2)nc1F (stereo not drawn) [compound 301, 1-fluoro-3,7-di(pyridin-3-yl)-5′H-spiro[chromeno[2,3-c]pyridine-5,4′-oxazol]-2′-amine] |  |  |  | IC50 (BACE1 [1]; [3]): < 0.1 µM; IC50 (BACE1 [2]; [4]): < 0.1 µM
COC(C)(C)C#Cc1ccc2c(c1)[C@@]1(COC(N)=N1)c1cc(-c3ccc(C)cc3)cnc1O2 [compound 577] | < 0.1 | < 0.1 |  | 
CC(C)(C#N)COc1cnc2c(c1)[C@]1(COC(N)=N1)c1cc(-c3cccnc3)ccc1O2 [compound 410] |  |  |  | IC50 (BACE1 [1]; [3]): < 0.1 µM; IC50 (BACE1 [2]; [4]): < 0.1 µM
NC1=N[C@]2(CO1)c1cc(-c3ccc(OC(F)F)cc3)ccc1Oc1ccc(-c3cncnc3)cc12 [compound 773] |  |  | < 0.1 | IC50 (BACE1 [2]): 0.1 to 1 µM
CC(C)(O)C#Cc1cnc2c(c1)[C@]1(COC(N)=N1)c1cc(-c3ccc(F)nc3)ccc1O2 [compound 794] | < 0.1 | < 0.1 |  | 
COc1ccc(-c2ccc3c(c2)[C@@]2(COC(N)=N2)c2cc(OCC(C)(C)C)ccc2O3)cn1 [Example 87, (4S)-2′-(2,2-dimethylpropoxy)-7′-(6-methoxy-3-pyridinyl)spiro[1,3-oxazole-4,9′-xanthen]-2-amine] |  |  |  | IC50 (BACE1 [1]; Table II): 0.1 to 1 µM; IC50 (BACE1 [2]; [5]): 1 to 5 µM
CC(C)(C)C#Cc1ccc2c(c1)[C@@]1(COC(N)=N1)c1cc(-c3cccnc3)cnc1O2 [compound 895] | < 0.1 | < 0.1 |  | 
N#Cc1ccc(-n2ccc3c(c2=O)[C@@]2(COC(N)=N2)c2cc(-c4cccnc4)ccc2O3)cc1 [compound 523] |  |  | 1 to 5 | IC50 (BACE1 [2]; HEK cells): 1 to 5 µM
NC1=N[C@]2(CO1)c1cc(-c3cccc(OC(F)(F)F)c3)ccc1Oc1ncccc12 [compound 595] | 0.1 to 1 | 1 to 5 |  | 
CC(=O)c1ccc(-c2ccc3c(c2)[C@]2(COC(N)=N2)c2cc(-c4cncnc4)ccc2O3)cc1 [compound 888] | < 0.1 | < 0.1 |  | 
Cc1ccc2c(c1)Oc1ccc(-c3ccccc3Cl)cc1C21COC(N)=N1 (stereo not drawn) [Example 29, 2′-(2-chlorophenyl)-6′-methylspiro[1,3-oxazole-4,9′-xanthen]-2-amine] |  |  |  | IC50 (BACE1 [1]; Table 1): > 5 µM; IC50 (BACE1 [2]; Table 1, Aβ40, 24 h incubation): > 5 µM
NC1=N[C@@]2(CO1)c1cc(-c3cccnc3)ccc1Oc1cnc([C@@H]3CCCCO3)cc12 [compound 696] |  |  | < 0.1 | IC50 (BACE1 [2]): < 0.1 µM
CC(C)(C)COc1ccc2c(c1)[C@]1(COC(N)=N1)c1cc(-c3ccc(N4CCOCC4)nc3)ccc1O2 [compound 912] | 1 to 5 | > 5 |  | 
Cn1cnc(-c2ccc3c(c2)[C@]2(COC(N)=N2)c2cc(-c4cccnc4)ccc2O3)c1 [compound 554] | 0.1 to 1 | < 0.1 |  | 
COc1cnc2c(c1)[C@@]1(COC(N)=N1)c1cc(Br)ccc1O2 [compound 543] | > 5 | > 5 |  | 
CC(C)(C)COc1ccc2c(c1)[C@@]1(COC(N)=N1)c1cc(-c3ccc(OCC4CC4)nc3)cnc1O2 [compound 741] |  |  | < 0.1 | IC50 (BACE1 [2]): < 0.1 µM

SMILES | IC50 (BACE1 [1]; Table IV, class symbols) [µM] | IC50 (BACE1 [2]; Table IV, class symbols) [µM] | IC50 (BACE1 [1]) [µM] | other results
COc1ccc2c(c1)C1(COC(N)=N1)c1cc(-c3cccnc3Cl)ccc1O2 (stereo not drawn) [Example 21, 2′-(2-chloro-3-pyridinyl)-7′-methoxyspiro[1,3-oxazole-4,9′-xanthen]-2-amine trifluoroacetic acid] |  |  |  | IC50 (BACE1 [1]; Table 1): 1 to 5 µM; IC50 (BACE1 [2]; Table 1, Aβ40, 24 h incubation): > 5 µM
NC1=N[C@@]2(CO1)c1cc(-c3cncnc3)ccc1Oc1ccc(-c3ccc(F)nc3)cc12 [compound 991] |  |  | < 0.1 | IC50 (BACE1 [2]): < 0.1 µM
NC1=N[C@]2(CO1)c1cc(OC3COC3)ccc1Oc1ccc(-c3cncnc3)cc12 [compound 776] |  |  | 0.1 to 1 | IC50 (BACE1 [2]): 0.1 to 1 µM
CC(C)(F)COc1ccc2c(c1)[C@]1(COC(N)=N1)c1cc(-c3cccnc3)cnc1O2 [compound 177] |  |  |  | IC50 (BACE1 [1]; Table III, IC50's in uM ranges): < 0.1 µM; IC50 (BACE1 [2]; Table III, IC50's in uM ranges): < 0.1 µM
CCc1cc2c3c(ccc2o1)Oc1ncc(-c2cncnc2)cc1[C@]31COC(N)=N1 [compound 769] |  |  | 0.1 to 1 | IC50 (BACE1 [2]): 1 to 5 µM
CC(C)(C)COc1ccc2c(c1)[C@]1(COC(N)=N1)c1cc(-c3ccnnc3)ccc1O2 [compound 145] |  |  |  | IC50 (BACE1 [1]; Table III, IC50's in uM ranges): < 0.1 µM; IC50 (BACE1 [2]; Table III, IC50's in uM ranges): 0.1 to 1 µM
NC1=N[C@@]2(CO1)c1cc(-c3cncnc3)ccc1Oc1cnc(Cl)cc12 [compound 500] |  |  | 0.1 to 1 | IC50 (BACE1 [2]; HEK cells): 1 to 5 µM
CC(C)(C)COc1ccc2c(c1)[C@]1(COC(N)=N1)c1cc(N3CCOCC3)ccc1O2 [Example 43, (4S)-2′-(2,2-dimethylpropoxy)-7′-(4-morpholinyl)spiro[1,3-oxazole-4,9′-xanthen]-2-amine] |  |  |  | IC50 (BACE1 [1]; Table II): 0.1 to 1 µM; IC50 (BACE1 [2]; [5]): 0.1 to 1 µM
NC1=N[C@]2(CO1)c1cc(-c3cncnc3)ccc1Oc1cccnc12 [compound 527] |  |  | 0.1 to 1 | IC50 (BACE1 [2]; HEK cells): 0.1 to 1 µM
COc1ccncc1-c1ccc2c(c1)[C@@]1(COC(N)=N1)c1cc(OCC(C)(C)C)ccc1O2 [compound 217] |  |  |  | IC50 (BACE1 [1]; Table III, IC50's in uM ranges): 0.1 to 1 µM; IC50 (BACE1 [2]; Table III, IC50's in uM ranges): 1 to 5 µM
NC1=N[C@@]2(CO1)c1cc(-c3cccnc3)ccc1Oc1cnc(N3CCCC3)cc12 [compound 493] |  |  | < 0.1 | IC50 (BACE1 [2]; HEK cells): < 0.1 µM
CCOC(C)(C)C#Cc1cnc2c(c1)[C@]1(COC(N)=N1)c1cc(-c3cccnc3)ccc1O2 [compound 347] |  |  |  | IC50 (BACE1 [1]; [3]): < 0.1 µM; IC50 (BACE1 [2]; [4]): < 0.1 µM
COC1CN(c2ccc3c(c2)[C@]2(COC(N)=N2)c2cc(-c4cccnc4)ccc2O3)C1 [compound 604] | < 0.1 | < 0.1 |  | 
CC(=O)c1cc(-c2ccc3c(c2)[C@@]2(COC(N)=N2)c2cc(OCC(C)(C)C)ccc2O3)cs1 [compound 836] | 1 to 5 | 1 to 5 |  | 
CC1(C)CN(c2cnc3c(c2)[C@]2(COC(N)=N2)c2cc(-c4cc(F)ccc4F)ccc2O3)CCO1 [compound 468] |  |  | < 0.1 | IC50 (BACE1 [2]; HEK cells): < 0.1 µM
CC(C)(C)COc1ccc2c(n1)[C@@]1(COC(N)=N1)c1cc(Br)ccc1O2 [compound 736] |  |  | 1 to 5 | IC50 (BACE1 [2]): > 5 µM
CC(C)(C)COc1ccc2c(c1)[C@]1(COC(N)=N1)c1cc(-c3cncnc3)cc(F)c1O2 [155b] |  |  |  | IC50 (BACE1 [1]; Table III, IC50's in uM ranges): < 0.1 µM; IC50 (BACE1 [2]; Table III, IC50's in uM ranges): 0.1 to 1 µM
NC1=NC2(CO1)c1cc(-c3ccccc3)ccc1Oc1ccc(-c3ccccc3)cc12 [compound 532] | < 0.1 | 0.1 to 1 |  | 
NC1=N[C@@]2(CO1)c1cc(-c3ccccc3)ccc1Oc1ncc(C3=CCOCC3)cc12 [compound 580] | < 0.1 | < 0.1 |  | 
CCOC(=O)c1ccc(-c2ccc3c(c2)[C@]2(COC(N)=N2)c2cc(-c4cccnc4)ccc2O3)o1 [compound 725] |  |  | < 0.1 | IC50 (BACE1 [2]): 0.1 to 1 µM
NC1=N[C@]2(CO1)c1cc(OC[C@@H](O)C(F)(F)F)ccc1Oc1ccc(-c3cccnc3)cc12 [compound 925] |  |  | < 0.1 | IC50 (BACE1 [2]): 0.1 to 1 µM
Cc1ccc(-c2ccc3c(c2)[C@]2(COC(N)=N2)c2cc(-c4cncnc4)ccc2O3)cc1 [compound 226] |  |  |  | IC50 (BACE1 [1]; Table III, IC50's in uM ranges): < 0.1 µM; IC50 (BACE1 [2]; Table III, IC50's in uM ranges): < 0.1 µM
COC1CN(c2cnc3c(c2)[C@]2(COC(N)=N2)c2cc(-c4cc(F)ccc4F)ccc2O3)C1 [compound 456] |  |  | < 0.1 | IC50 (BACE1 [2]; HEK cells): < 0.1 µM
COc1ccc(-c2ccc3c(c2)[C@]2(COC(N)=N2)c2cc(-c4cccnc4)ccc2O3)o1 [compound 711] |  |  | < 0.1 | IC50 (BACE1 [2]): 0.1 to 1 µM
NC1=N[C@@]2(CO1)c1cc(-c3cc(F)ccc3F)ccc1Oc1ncc(N3CCOCC3)cc12 [compound 461] |  |  | < 0.1 | IC50 (BACE1 [2]; HEK cells): < 0.1 µM
